Measurements taken from the kinase profiling compilation of Christmann-Franck et al. (2016).

Assays:
Assay in all cases: KINOMEscan competition binding
Conditions in all cases: compound 10.0 µM
[1] = tested on: MET (human), P08581 [M1250T]
[2] = tested on: FGFR3 (human), P22607 [G697C]
[3] = tested on: ABL1 (human), P00519 [F317L]
[4] = tested on: KIT (human), P10721 [A829P]
[5] = tested on: RET (human), P07949 [V804L]
[6] = tested on: KIT (human), P10721 [D816H]
[7] = tested on: PIK3CA (human), P42336 [H1047L]
[8] = tested on: PIK3CA (human), P42336 [M1043I]
[9] = tested on: PIK3CA (human), P42336 [E542K]
[10] = tested on: BMX (human), P51813 [V600E]
[11] = tested on: LRRK2 (human), Q5S007 [G2019S]
[12] = tested on: EGFR (human), P00533 [L858R]
[13] = tested on: EGFR (human), P00533 [G719C]
[14] = tested on: EGFR (human), P00533 [A750P; 747-749 del]
[15] = tested on: FLT3 (human), P36888 [D835Y]

Sequence of LRRK2 (human), Q5S007 [G2019S] (Q5S007 whole entry G2019S, looked up): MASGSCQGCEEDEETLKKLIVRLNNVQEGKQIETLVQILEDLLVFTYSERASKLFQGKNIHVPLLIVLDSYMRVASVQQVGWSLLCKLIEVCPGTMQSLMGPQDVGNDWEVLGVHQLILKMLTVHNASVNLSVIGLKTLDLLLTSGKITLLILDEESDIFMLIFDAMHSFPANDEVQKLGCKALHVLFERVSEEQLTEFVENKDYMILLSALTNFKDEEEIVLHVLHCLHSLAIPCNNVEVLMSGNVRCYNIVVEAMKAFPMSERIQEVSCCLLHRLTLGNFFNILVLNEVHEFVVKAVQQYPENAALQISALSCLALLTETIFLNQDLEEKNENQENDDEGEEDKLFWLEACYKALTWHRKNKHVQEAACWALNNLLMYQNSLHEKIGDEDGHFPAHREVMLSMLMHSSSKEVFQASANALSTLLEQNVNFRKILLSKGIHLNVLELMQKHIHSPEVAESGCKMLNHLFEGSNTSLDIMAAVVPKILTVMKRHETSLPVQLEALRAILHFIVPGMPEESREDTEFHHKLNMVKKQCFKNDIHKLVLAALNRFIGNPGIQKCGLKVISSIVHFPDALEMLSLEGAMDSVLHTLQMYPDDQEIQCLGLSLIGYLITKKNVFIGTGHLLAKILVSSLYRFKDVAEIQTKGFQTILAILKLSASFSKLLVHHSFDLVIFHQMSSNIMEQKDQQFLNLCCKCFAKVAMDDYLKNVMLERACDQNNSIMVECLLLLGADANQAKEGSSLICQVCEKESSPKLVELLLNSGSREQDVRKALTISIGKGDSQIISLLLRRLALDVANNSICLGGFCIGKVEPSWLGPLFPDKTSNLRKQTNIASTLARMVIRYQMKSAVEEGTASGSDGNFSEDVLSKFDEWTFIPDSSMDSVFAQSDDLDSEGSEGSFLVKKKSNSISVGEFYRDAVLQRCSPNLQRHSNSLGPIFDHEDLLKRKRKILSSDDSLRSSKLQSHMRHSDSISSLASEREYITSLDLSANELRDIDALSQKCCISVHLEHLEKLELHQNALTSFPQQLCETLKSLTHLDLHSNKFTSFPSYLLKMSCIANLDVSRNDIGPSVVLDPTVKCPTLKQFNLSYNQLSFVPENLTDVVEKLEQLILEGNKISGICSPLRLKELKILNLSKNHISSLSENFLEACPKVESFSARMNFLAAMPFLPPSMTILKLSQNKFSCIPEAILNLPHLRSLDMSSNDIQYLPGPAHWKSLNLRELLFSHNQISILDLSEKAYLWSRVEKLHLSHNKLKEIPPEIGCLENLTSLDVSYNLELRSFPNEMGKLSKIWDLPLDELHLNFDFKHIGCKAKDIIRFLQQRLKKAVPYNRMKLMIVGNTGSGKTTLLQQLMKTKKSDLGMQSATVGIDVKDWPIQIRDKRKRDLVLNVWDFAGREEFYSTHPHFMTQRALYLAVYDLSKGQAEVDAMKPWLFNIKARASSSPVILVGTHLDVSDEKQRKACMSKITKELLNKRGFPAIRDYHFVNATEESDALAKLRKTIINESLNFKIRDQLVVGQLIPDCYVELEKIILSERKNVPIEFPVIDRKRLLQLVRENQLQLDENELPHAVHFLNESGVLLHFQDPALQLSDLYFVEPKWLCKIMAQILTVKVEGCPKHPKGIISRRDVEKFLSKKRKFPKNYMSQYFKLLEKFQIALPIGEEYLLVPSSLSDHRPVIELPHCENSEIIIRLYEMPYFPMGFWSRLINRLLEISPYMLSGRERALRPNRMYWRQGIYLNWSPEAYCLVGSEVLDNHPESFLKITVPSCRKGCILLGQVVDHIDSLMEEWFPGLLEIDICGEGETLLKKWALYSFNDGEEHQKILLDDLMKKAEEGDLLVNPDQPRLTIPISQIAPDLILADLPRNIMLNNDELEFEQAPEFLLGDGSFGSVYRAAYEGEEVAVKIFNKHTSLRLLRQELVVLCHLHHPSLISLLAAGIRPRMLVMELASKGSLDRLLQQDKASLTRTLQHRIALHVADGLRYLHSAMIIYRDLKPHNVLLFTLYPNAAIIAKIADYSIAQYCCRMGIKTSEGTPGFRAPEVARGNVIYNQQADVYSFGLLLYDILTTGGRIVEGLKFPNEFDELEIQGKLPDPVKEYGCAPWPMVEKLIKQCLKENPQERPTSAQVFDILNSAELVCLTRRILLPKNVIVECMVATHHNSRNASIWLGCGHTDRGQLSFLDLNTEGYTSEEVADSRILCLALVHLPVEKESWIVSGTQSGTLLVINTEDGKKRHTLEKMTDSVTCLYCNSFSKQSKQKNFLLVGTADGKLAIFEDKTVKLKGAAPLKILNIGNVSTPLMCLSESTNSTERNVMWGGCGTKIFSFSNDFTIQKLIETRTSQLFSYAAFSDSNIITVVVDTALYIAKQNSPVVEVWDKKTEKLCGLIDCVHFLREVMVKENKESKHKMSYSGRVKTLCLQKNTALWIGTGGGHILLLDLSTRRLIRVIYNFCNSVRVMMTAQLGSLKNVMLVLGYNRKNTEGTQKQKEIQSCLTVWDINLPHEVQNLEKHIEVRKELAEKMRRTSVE
Sequence of KIT (human), P10721 [A829P] (P10721 whole entry A829P, looked up): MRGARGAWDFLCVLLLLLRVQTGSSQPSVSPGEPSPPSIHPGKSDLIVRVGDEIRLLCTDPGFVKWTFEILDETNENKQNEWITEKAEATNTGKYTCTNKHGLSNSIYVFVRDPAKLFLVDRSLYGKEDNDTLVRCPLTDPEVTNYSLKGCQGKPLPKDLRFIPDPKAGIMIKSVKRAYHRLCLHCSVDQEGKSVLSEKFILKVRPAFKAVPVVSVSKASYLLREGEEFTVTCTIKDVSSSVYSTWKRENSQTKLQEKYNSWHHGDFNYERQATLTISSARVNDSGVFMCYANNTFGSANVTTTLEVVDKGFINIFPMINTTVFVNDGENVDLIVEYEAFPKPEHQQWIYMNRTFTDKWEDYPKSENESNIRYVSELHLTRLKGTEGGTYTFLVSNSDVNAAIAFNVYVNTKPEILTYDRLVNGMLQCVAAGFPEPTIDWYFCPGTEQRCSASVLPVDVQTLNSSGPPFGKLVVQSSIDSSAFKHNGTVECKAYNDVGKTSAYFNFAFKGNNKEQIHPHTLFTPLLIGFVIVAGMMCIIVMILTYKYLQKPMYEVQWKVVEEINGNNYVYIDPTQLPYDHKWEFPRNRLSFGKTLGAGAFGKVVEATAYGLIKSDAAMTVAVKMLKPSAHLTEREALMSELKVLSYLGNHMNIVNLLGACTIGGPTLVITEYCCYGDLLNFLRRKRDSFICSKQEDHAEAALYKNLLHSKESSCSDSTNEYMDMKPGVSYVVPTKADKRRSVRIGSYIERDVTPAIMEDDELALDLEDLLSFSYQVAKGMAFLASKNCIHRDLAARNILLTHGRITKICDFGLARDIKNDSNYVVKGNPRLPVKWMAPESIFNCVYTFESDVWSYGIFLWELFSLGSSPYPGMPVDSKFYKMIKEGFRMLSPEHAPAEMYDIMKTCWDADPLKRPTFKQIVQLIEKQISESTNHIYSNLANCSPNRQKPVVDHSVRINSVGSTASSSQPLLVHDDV
Sequence of PIK3CA (human), P42336 [M1043I] (P42336 whole entry M1043I, looked up): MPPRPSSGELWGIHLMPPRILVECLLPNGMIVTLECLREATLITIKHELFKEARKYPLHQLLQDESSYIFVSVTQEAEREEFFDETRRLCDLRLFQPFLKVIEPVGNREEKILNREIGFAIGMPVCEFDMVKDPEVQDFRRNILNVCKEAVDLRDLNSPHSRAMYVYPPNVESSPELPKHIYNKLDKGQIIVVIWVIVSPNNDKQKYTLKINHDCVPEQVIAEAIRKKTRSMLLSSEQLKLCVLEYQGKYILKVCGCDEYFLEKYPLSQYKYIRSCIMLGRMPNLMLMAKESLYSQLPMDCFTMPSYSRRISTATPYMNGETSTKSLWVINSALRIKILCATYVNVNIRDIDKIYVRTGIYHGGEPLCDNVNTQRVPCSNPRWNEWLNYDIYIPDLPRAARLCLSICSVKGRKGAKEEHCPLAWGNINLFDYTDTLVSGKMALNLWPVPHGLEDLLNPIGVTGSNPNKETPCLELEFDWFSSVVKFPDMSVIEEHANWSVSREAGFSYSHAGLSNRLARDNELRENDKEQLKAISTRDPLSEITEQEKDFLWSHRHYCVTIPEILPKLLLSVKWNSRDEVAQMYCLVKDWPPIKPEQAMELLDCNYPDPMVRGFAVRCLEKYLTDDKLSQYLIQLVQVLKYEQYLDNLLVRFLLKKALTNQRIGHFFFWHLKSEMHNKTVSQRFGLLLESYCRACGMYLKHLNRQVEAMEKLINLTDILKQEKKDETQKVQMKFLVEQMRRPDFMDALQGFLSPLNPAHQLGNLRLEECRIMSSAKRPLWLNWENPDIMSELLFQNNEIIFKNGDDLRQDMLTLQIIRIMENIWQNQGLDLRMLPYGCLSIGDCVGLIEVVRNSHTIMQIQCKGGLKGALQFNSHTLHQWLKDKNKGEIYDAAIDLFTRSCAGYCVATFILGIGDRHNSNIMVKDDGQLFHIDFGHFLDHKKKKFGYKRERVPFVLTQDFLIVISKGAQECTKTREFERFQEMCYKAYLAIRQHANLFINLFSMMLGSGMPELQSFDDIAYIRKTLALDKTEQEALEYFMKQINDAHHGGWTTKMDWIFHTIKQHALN
Sequence of PIK3CA (human), P42336 [H1047L] (P42336 whole entry H1047L, looked up): as the sequence (P42336 whole entry M1043I, looked up) above, with I1043M, H1047L counted along it
Sequence of KIT (human), P10721 [D816H] (P10721 whole entry D816H, looked up): as the sequence (P10721 whole entry A829P, looked up) above, with D816H, P829A counted along it
Sequence of PIK3CA (human), P42336 [E542K] (P42336 whole entry E542K, looked up): as the sequence (P42336 whole entry M1043I, looked up) above, with E542K, I1043M counted along it

CCOc1cc2ncc(C#N)c(Nc3ccc(OCc4ccccn4)c(Cl)c3)c2cc1NC(=O)/C=C/CN(C)C
kinase still bound, per cent of control [1]: 47%
kinase still bound, per cent of control [2]: 100%
kinase still bound, per cent of control [3]: 100%
kinase still bound, per cent of control [4]: 100%
kinase still bound, per cent of control [5]: 100%
kinase still bound, per cent of control [6]: 88%
kinase still bound, per cent of control [7]: 100%
kinase still bound, per cent of control [8]: 100%
kinase still bound, per cent of control [9]: 100%
kinase still bound, per cent of control [10]: 100%
kinase still bound, per cent of control [11]: 85%

O=C1Nc2ccc(I)cc2/C1=C/c1cc(Br)c(O)c(Br)c1
kinase still bound, per cent of control [12]: 32%
kinase still bound, per cent of control [13]: 80%
kinase still bound, per cent of control [1]: 80%
kinase still bound, per cent of control [2]: 76%
kinase still bound, per cent of control [4]: 93%
kinase still bound, per cent of control [5]: 100%
kinase still bound, per cent of control [6]: 99%
kinase still bound, per cent of control [7]: 97%
kinase still bound, per cent of control [8]: 76%
kinase still bound, per cent of control [9]: 84%
kinase still bound, per cent of control [10]: 0.1%
kinase still bound, per cent of control [14]: 36%
kinase still bound, per cent of control [15]: 13%
kinase still bound, per cent of control [11]: 9%

O=C1NC(=O)/C(=C/c2ccc3nccc(-c4ccncc4)c3c2)S1
kinase still bound, per cent of control [12]: 43%
kinase still bound, per cent of control [13]: 54%
kinase still bound, per cent of control [1]: 40%
kinase still bound, per cent of control [2]: 100%
kinase still bound, per cent of control [4]: 88%
kinase still bound, per cent of control [5]: 100%
kinase still bound, per cent of control [6]: 89%
kinase still bound, per cent of control [7]: 27%
kinase still bound, per cent of control [8]: 0%
kinase still bound, per cent of control [9]: 0.2%
kinase still bound, per cent of control [10]: 41%
kinase still bound, per cent of control [14]: 47%
kinase still bound, per cent of control [15]: 28%
kinase still bound, per cent of control [11]: 58%

CN(C)C/C=C/C(=O)Nc1cccc(Nc2ncc3c(n2)N(C)c2ccccc2C(=O)N3C)c1
kinase still bound, per cent of control [12]: 73%
kinase still bound, per cent of control [13]: 14%
kinase still bound, per cent of control [1]: 43%
kinase still bound, per cent of control [2]: 12%
kinase still bound, per cent of control [4]: 40%
kinase still bound, per cent of control [5]: 0.15%
kinase still bound, per cent of control [6]: 33%
kinase still bound, per cent of control [7]: 16%
kinase still bound, per cent of control [8]: 39%
kinase still bound, per cent of control [9]: 39%
kinase still bound, per cent of control [10]: 59%
kinase still bound, per cent of control [14]: 71%
kinase still bound, per cent of control [15]: 1.4%
kinase still bound, per cent of control [11]: 6.1%

CCN1CCN(C(=O)Cc2ccc(Nc3ncc(F)c(Nc4ccc(C(=O)Nc5ccccc5Cl)cc4)n3)cc2)CC1
kinase still bound, per cent of control [12]: 28%
kinase still bound, per cent of control [13]: 46%
kinase still bound, per cent of control [1]: 11%
kinase still bound, per cent of control [2]: 21%
kinase still bound, per cent of control [4]: 64%
kinase still bound, per cent of control [5]: 3.2%
kinase still bound, per cent of control [6]: 25%
kinase still bound, per cent of control [7]: 100%
kinase still bound, per cent of control [8]: 100%
kinase still bound, per cent of control [9]: 84%
kinase still bound, per cent of control [10]: 43%
kinase still bound, per cent of control [14]: 11%
kinase still bound, per cent of control [15]: 0.15%
kinase still bound, per cent of control [11]: 53%

O=c1cc(N2CCOCC2)oc2c(-c3cccc4c3sc3ccccc34)cccc12
kinase still bound, per cent of control [12]: 89%
kinase still bound, per cent of control [13]: 100%
kinase still bound, per cent of control [1]: 67%
kinase still bound, per cent of control [2]: 94%
kinase still bound, per cent of control [4]: 96%
kinase still bound, per cent of control [5]: 100%
kinase still bound, per cent of control [6]: 100%
kinase still bound, per cent of control [7]: 4.4%
kinase still bound, per cent of control [8]: 17%
kinase still bound, per cent of control [9]: 27%
kinase still bound, per cent of control [10]: 95%
kinase still bound, per cent of control [14]: 91%
kinase still bound, per cent of control [15]: 79%
kinase still bound, per cent of control [11]: 100%

COc1cc(N2CCN(C)CC2)ccc1Nc1nc(N)c(C(=O)c2c(Cl)cccc2Cl)s1
kinase still bound, per cent of control [12]: 100%
kinase still bound, per cent of control [13]: 91%
kinase still bound, per cent of control [1]: 100%
kinase still bound, per cent of control [2]: 100%
kinase still bound, per cent of control [4]: 81%
kinase still bound, per cent of control [5]: 100%
kinase still bound, per cent of control [6]: 86%
kinase still bound, per cent of control [7]: 100%
kinase still bound, per cent of control [8]: 100%
kinase still bound, per cent of control [9]: 100%
kinase still bound, per cent of control [10]: 100%
kinase still bound, per cent of control [14]: 100%
kinase still bound, per cent of control [15]: 100%
kinase still bound, per cent of control [11]: 97%

COc1cc(C(=O)N2CCC(N3CCN(C)CC3)CC2)ccc1Nc1ncc2c(n1)N(C)c1ccccc1C(=O)N2C
kinase still bound, per cent of control [12]: 79%
kinase still bound, per cent of control [13]: 100%
kinase still bound, per cent of control [1]: 96%
kinase still bound, per cent of control [2]: 85%
kinase still bound, per cent of control [4]: 100%
kinase still bound, per cent of control [5]: 89%
kinase still bound, per cent of control [6]: 100%
kinase still bound, per cent of control [7]: 20%
kinase still bound, per cent of control [8]: 65%
kinase still bound, per cent of control [9]: 77%
kinase still bound, per cent of control [10]: 100%
kinase still bound, per cent of control [14]: 78%
kinase still bound, per cent of control [15]: 100%
kinase still bound, per cent of control [11]: 5%

C[C@@H](Oc1cc(-n2cnc3ccc(CN4CCN(C)CC4)cc32)sc1C(N)=O)c1ccccc1C(F)(F)F
kinase still bound, per cent of control [12]: 86%
kinase still bound, per cent of control [13]: 100%
kinase still bound, per cent of control [1]: 93%
kinase still bound, per cent of control [2]: 75%
kinase still bound, per cent of control [4]: 29%
kinase still bound, per cent of control [5]: 100%
kinase still bound, per cent of control [6]: 40%
kinase still bound, per cent of control [7]: 16%
kinase still bound, per cent of control [8]: 63%
kinase still bound, per cent of control [9]: 91%
kinase still bound, per cent of control [10]: 58%
kinase still bound, per cent of control [14]: 81%
kinase still bound, per cent of control [15]: 21%
kinase still bound, per cent of control [11]: 40%

Cc1ccc(NC(=O)c2cccc(C(C)(C)C#N)c2)cc1Nc1ccc2ncn(C)c(=O)c2c1
kinase still bound, per cent of control [12]: 48%
kinase still bound, per cent of control [13]: 49%
kinase still bound, per cent of control [1]: 64%
kinase still bound, per cent of control [2]: 100%
kinase still bound, per cent of control [4]: 100%
kinase still bound, per cent of control [5]: 31%
kinase still bound, per cent of control [6]: 57%
kinase still bound, per cent of control [7]: 100%
kinase still bound, per cent of control [8]: 89%
kinase still bound, per cent of control [9]: 100%
kinase still bound, per cent of control [10]: 0%
kinase still bound, per cent of control [14]: 11%
kinase still bound, per cent of control [15]: 100%
kinase still bound, per cent of control [11]: 69%

C=CC(=O)Nc1cc(NC(=O)c2ccc(C)c(NC(=O)c3ccno3)c2)cc(C(F)(F)F)c1
kinase still bound, per cent of control [12]: 100%
kinase still bound, per cent of control [13]: 94%
kinase still bound, per cent of control [1]: 86%
kinase still bound, per cent of control [2]: 91%
kinase still bound, per cent of control [4]: 54%
kinase still bound, per cent of control [5]: 100%
kinase still bound, per cent of control [6]: 75%
kinase still bound, per cent of control [7]: 73%
kinase still bound, per cent of control [8]: 93%
kinase still bound, per cent of control [9]: 88%
kinase still bound, per cent of control [10]: 19%
kinase still bound, per cent of control [14]: 100%
kinase still bound, per cent of control [15]: 100%
kinase still bound, per cent of control [11]: 85%

COc1cc2ncnc(-n3nc(-c4ccccn4)nc3N)c2cc1OC
kinase still bound, per cent of control [12]: 55%
kinase still bound, per cent of control [13]: 24%
kinase still bound, per cent of control [1]: 44%
kinase still bound, per cent of control [2]: 100%
kinase still bound, per cent of control [4]: 33%
kinase still bound, per cent of control [5]: 54%
kinase still bound, per cent of control [6]: 12%
kinase still bound, per cent of control [7]: 17%
kinase still bound, per cent of control [8]: 36%
kinase still bound, per cent of control [9]: 48%
kinase still bound, per cent of control [10]: 23%
kinase still bound, per cent of control [14]: 44%
kinase still bound, per cent of control [15]: 3.4%
kinase still bound, per cent of control [11]: 41%

CN(C)C/C=C/C(=O)Nc1ccc(C(=O)Nc2cccc(Nc3nccc(-c4cccnc4)n3)c2)cc1
kinase still bound, per cent of control [12]: 99%
kinase still bound, per cent of control [13]: 83%
kinase still bound, per cent of control [1]: 100%
kinase still bound, per cent of control [2]: 84%
kinase still bound, per cent of control [4]: 64%
kinase still bound, per cent of control [5]: 84%
kinase still bound, per cent of control [6]: 51%
kinase still bound, per cent of control [7]: 100%
kinase still bound, per cent of control [8]: 100%
kinase still bound, per cent of control [9]: 100%
kinase still bound, per cent of control [10]: 63%
kinase still bound, per cent of control [14]: 100%
kinase still bound, per cent of control [15]: 18%
kinase still bound, per cent of control [11]: 76%

O=C(NC1CC1)c1cccc(-c2ccc3c(NC(=O)C4CC4)n[nH]c3c2)c1
kinase still bound, per cent of control [12]: 93%
kinase still bound, per cent of control [13]: 73%
kinase still bound, per cent of control [1]: 73%
kinase still bound, per cent of control [2]: 100%
kinase still bound, per cent of control [4]: 76%
kinase still bound, per cent of control [5]: 96%
kinase still bound, per cent of control [6]: 75%
kinase still bound, per cent of control [7]: 98%
kinase still bound, per cent of control [8]: 92%
kinase still bound, per cent of control [9]: 100%
kinase still bound, per cent of control [10]: 65%
kinase still bound, per cent of control [14]: 82%
kinase still bound, per cent of control [15]: 15%
kinase still bound, per cent of control [11]: 87%
